# Source: US20120264803A1, “METHOD FOR PREDICTING THERAPEUTIC EFFECTS OF CHEMOTHERAPY ON HEPATOCELLULAR CARCINOMA PATIENTS” (priority 2009, published 2012)
# Legend:
# [1] = system: hepatocellular carcinoma patients treated with TACE; assay: Comparative clinical study of TSU-68 administration vs non-administration after TACE (progression-free survival); assay type: in vivo, human
# Protocol: A comparative clinical study was conducted for the TSU-68 administration group and the TSU-68 non-administration group consisting of cases diagnosed as hepatocellular carcinoma that were impossible to treat with hepatectomy and PAT and had been treated with TACE. The antitumor agent used herein for TACE was epirubicin.
# The subject cases were randomly assigned to the TSU-68 administration group and the TSU-68 non-administration group. TSU-68 administration was initiated for cases assigned to the TSU-68 administration group within 2 weeks after TACE. TSU-68 was administered orally at a dose of 200 mg per administration twice daily after breakfast and dinner on consecutive days. No further cancer treatment was given to the TSU-68 non-administration group after TACE and thus only follow-up observation was carried out.
# Progression-free survival was defined as survival within the period from the day of TACE designated as the initial date of reckoning to any of dates on which the following events was observed, whichever came first.
# 1. Date on which the presence of progressive disease (hereinafter referred to as “PD”) was confirmed as a result of assessment of best overall response (date of testing). 2. Date on which a test subject died for any reason (date of death). 3. Date on which a test subject was assessed to have experienced clinically obvious deterioration of the disease or to be in need of post-TACE treatment even without confirmation of PD upon assessment of best overall response (date of assessment).
# Best overall response was evaluated by measuring tumor diameters by CT and assaying tumor markers (AFP, PIVKA-II, and AFP-L3 fractions) according to New Guideline to Evaluate the Response to Treatment in Solid Tumor (hereinafter referred to as “RECIST”) (J Natl Cancer Inst 92: 205, 2000).
# The expression levels of PDGF-BB and IL-8 in blood obtained before TSU-68 administration after TACE were determined using ELISA Kits as described below.
# Cut-off points were determined by the statistical analysis technique described below based on the quantified PDGF-BB and IL-8 levels.
# (1) The cut-off point for dividing patients into the PDGF-BB hyperexpression group and the PDGF-BB underexpression group was calculated so that the difference between the 6-month-progression-free survival rate for the TSU-68 administration group and the 6-month-progression-free survival rate for the TSU-68 non-administration group was 20% or more for patients in the PDGF-BB hyperexpression group. The cut-off point was 1480 to 2030 pg/ml. (2) The cut-off point for dividing patients into the PDGF-BB hyperexpression group and the PDGF-BB underexpression group was calculated so that the hazard ratio of the TSU-68 administration group to the TSU-68 non-administration group was 0.6 or less for patients in the PDGF-BB hyperexpression group. The cut-off point was 1740 to 1960 pg/ml. (3) The cut-off point for dividing patients into the IL-8 hyperexpression group and the IL-8 underexpression group was calculated so that the difference between the 6-month-progression-free survival rate for the TSU-68 administration group and the 6-month-progression-free survival rate for the TSU-68 non-administration group was 20% or more for cases in the IL-8 hyperexpression group. The cut-off point was 2.1 to 6.6 pg/ml. (4) The cut-off point for dividing patients into the IL-8 hyperexpression group and the IL-8 underexpression group was calculated so that the hazard ratio of the TSU-68 administration group to the TSU-68 non-administration group was 0.6 or less for cases in the IL-8 hyperexpression group. The cut-off point was 2.1 to 10.5 pg/ml.
# The PDGF-BB hyperexpression group, the PDGF-BB underexpression group, the IL-8 hyperexpression group, and the IL-8 underexpression group were subjected to survival time analysis of the TSU-68 administration group and the TSU-68 non-administration group with the use of the cut-off points calculated in Example 1.
# [2] = system: human cancer cell lines subcutaneously implanted (lung cancer, colon cancer, ovarian cancer); settings: oral administration of TSU-68 alone, Non-Patent Literature 3; cited from earlier work
# [3] = IL-8 hyperexpression group, cut-off 2.1 pg/ml, vs non-administration
# [4] = IL-8 hyperexpression group, cut-off 6.6 pg/ml, vs non-administration
# [5] = IL-8 hyperexpression group, cut-off 10.5 pg/ml, vs non-administration
# [6] = IL-8 underexpression group, cut-off 6.6 pg/ml, vs non-administration
# [7] = IL-8 underexpression group, cut-off 10.5 pg/ml, vs non-administration
# [8] = PDGF-BB hyperexpression group, cut-off 1480 pg/ml, vs non-administration
# [9] = PDGF-BB hyperexpression group, cut-off 1740 pg/ml, vs non-administration
# [10] = PDGF-BB hyperexpression group, cut-off 1960 pg/ml, vs non-administration
# [11] = PDGF-BB hyperexpression group, cut-off 2030 pg/ml, vs non-administration
# [12] = PDGF-BB underexpression group, cut-off 1480 pg/ml, vs non-administration
# [13] = PDGF-BB underexpression group, cut-off 1740 pg/ml, vs non-administration
# [14] = PDGF-BB underexpression group, cut-off 1960 pg/ml, vs non-administration
# [15] = PDGF-BB underexpression group, cut-off 2030 pg/ml, vs non-administration
# [16] = patients having high PDGF-BB or IL-8 blood levels (summary over cut-off points), vs non-administration
# [17] = stratified using reported VCAM cut-off point 2370 pg/ml (data not shown), vs non-administration
compound,measurement,setting,value
"Cc1[nH]c(/C=C2\C(=O)Nc3ccccc32)c(C)c1CCC(=O)O [TSU-68, (Z)-5-[(1,2-dihydro-2-oxo-3H-indol-3-ylidene)methyl]2,4-dimethyl-1H-pyrro 1-3-propanoic acid]",6-month-progression-free survival rates,"[1]; IL-8 hyperexpression group, cut-off 2.1 pg/ml",48%
same,Difference between 6-month-progression-free survival rate,[1]; [3],23%
same,Hazard ratio,[1]; [3],0.51
same,6-month-progression-free survival rate,"[1]; IL-8 hyperexpression group, cut-off 6.6 pg/ml",50%
same,Difference between 6-month-progression-free survival rates,[1]; [4],20%
same,Hazard ratio,[1]; [4],0.51
same,6-month-progression-free survival rate,"[1]; IL-8 hyperexpression group, cut-off 10.5 pg/ml",56%
same,Difference between 6-month-progression-free survival rates,[1]; [5],27%
same,Hazard ratio,[1]; [5],0.51
same,6-month-progression-free survival rates,"[1]; IL-8 underexpression group, cut-off 2.1 pg/ml",0%
same,Difference between 6-month-progression-free survival rate,"[1]; IL-8 underexpression group, cut-off 2.1 pg/ml, vs non-administration",−57%
same,6-month-progression-free survival rate,"[1]; IL-8 underexpression group, cut-off 6.6 pg/ml",39%
same,Difference between 6-month-progression-free survival rates,[1]; [6],9%
same,Hazard ratio,[1]; [6],0.92
same,6-month-progression-free survival rate,"[1]; IL-8 underexpression group, cut-off 10.5 pg/ml",41%
same,Difference between 6-month-progression-free survival rates,[1]; [7],11%
same,Hazard ratio,[1]; [7],0.79
same,6-month-progression-free survival rate,"[1]; PDGF-BB hyperexpression group, cut-off 1480 pg/ml",52%
same,Difference between 6-month-progression-free survival rates,[1]; [8],21%
same,Hazard ratio,[1]; [8],0.64
same,6-month-progression-free survival rate,"[1]; PDGF-BB hyperexpression group, cut-off 1740 pg/ml",52%
same,Difference between 6-month-progression-free survival rates,[1]; [9],25%
same,Hazard ratio,[1]; [9],0.59
same,6-month-progression-free survival rate,"[1]; PDGF-BB hyperexpression group, cut-off 1960 pg/ml",52%
same,Difference between 6-month-progression-free survival rates,[1]; [10],25%
same,Hazard ratio,[1]; [10],0.55
same,6-month-progression-free survival rate,"[1]; PDGF-BB hyperexpression group, cut-off 2030 pg/ml",52%
same,Difference between 6-month-progression-free survival rates,[1]; [11],24%
same,Hazard ratio,[1]; [11],0.62
same,6-month-progression-free survival rate,"[1]; PDGF-BB underexpression group, cut-off 1480 pg/ml",25%
same,Difference between 6-month-progression-free survival rates,[1]; [12],2%
same,Hazard ratio,[1]; [12],0.73
same,6-month-progression-free survival rate,"[1]; PDGF-BB underexpression group, cut-off 1740 pg/ml",40%
same,Difference between 6-month-progression-free survival rates,[1]; [13],2%
same,Hazard ratio,[1]; [13],0.85
same,6-month-progression-free survival rate,"[1]; PDGF-BB underexpression group, cut-off 1960 pg/ml",40%
same,Difference between 6-month-progression-free survival rates,[1]; [14],7%
same,Hazard ratio,[1]; [14],0.84
same,6-month-progression-free survival rate,"[1]; PDGF-BB underexpression group, cut-off 2030 pg/ml",42%
same,Difference between 6-month-progression-free survival rates,[1]; [15],10%
same,Hazard ratio,[1]; [15],0.75
same,6-month-progression-free survival rate,"[1]; all cases, TSU-68 200 mg orally twice daily after TACE",47%
same,Hazard ratio,"[1]; all cases, TSU-68 administration to non-administration group",0.69
same,Difference between 6-month-progression-free survival rates,"[1]; all cases, TSU-68 administration vs non-administration group",18%
same,Difference between 6-month-progression-free survival rates,[1]; [16],22% to 27
same,Hazard ratio,[1]; [16],0.51 to 0.68
same,Difference between 6-month-progression-free survival rates,[1]; [17],< 20%
same,Hazard ratio,[1]; [17],> 0.6
same,antitumor effects (tumor growth inhibition),[2],effective for inhibiting tumor growth
